Assay results: PubChem BioAssay (NCI)
Values joined by “and” are separate entries in the source; they are usually repeats but may differ in a detail not shown here. Identical values can stand only once.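 Dose response: 5 concentrations. Exposure: 48 h. Format: 96-well plates. Endpoint: linear interpolation; highest concentration if not reached. The concentration for 50% growth inhibition is given as GI50. TGI: total growth inhibition.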

tested on: SK-MEL-5 melanoma; assay: growth of human tumour cells (NCI), 48 h

**Q.** How did the TGI turn out when `Cc1nc(-c2nc(C)c(C(=O)NNC(=O)C[n+]3ccccc3)s2)sc1C(=O)NNC(=O)C[n+]1ccccc1` was run?
**A.** > 100 µM

**Q.** `CN(C)C=Nc1nc(=O)n(C2CCC(CO)O2)cc1F` (configuration not stated) was tested. Which TGI did it give?
**A.** > 100 µM

**Q.** With `O=c1[nH]c(-c2ccccc2)nc2cc(Cl)ccc12` as the compound, how does the TGI read?
**A.** > 100 µM

**Q.** `Cc1ccc(S(=O)(=O)N2CCC2c2ccccc2)cc1` (configuration not stated) was tested. Which TGI did it give?
**A.** > 100 µM

**Q.** With `CCCOc1nc(N)c2cnn(C3CCCCO3)c2n1` (configuration not stated) as the compound, how does the TGI read?
**A.** > 100 µM

**Q.** How did the TGI turn out when `C/C(CN1C(=O)c2ccccc2C1=O)=N\NS(=O)(=O)c1ccc(Cl)cc1` was run?
**A.** > 100 µM

**Q.** `C[C@@H]1CC[C@H]2C(C)(C)[C@H]3C[C@@]12CC[C@@]3(C)O` was tested. Which TGI did it give?
**A.** > 100 µM

**Q.** With `COc1ccc(/C=C/COC(C)=O)cc1OC` as the compound, how does the TGI read?
**A.** > 100 µM

**Q.** With `C=C(C)C(=O)O[C@@H]1C[C@@]2(C)O[C@@H]2C[C@H](O)/C(C)=C/[C@H]2OC(=O)C(=C)[C@@H]21` as the compound, how does the TGI read?
**A.** > 100 µM

**Q.** How did the GI50 turn out when `Cc1ccc(-c2nc(N3CCNCC3)c3oc(-c4ccc(C)cc4)nc3n2)cc1` was run?
**A.** > 39.2 µM

**Q.** What about the TGI of the same compound?
**A.** > 53.9 µM

**Q.** For `[O-][Cl+3]([O-])([O-])[O-].[O]=[Ru]=[O].c1ccc(-c2ccccn2)nc1.c1ccc(-c2ccccn2)nc1`, which GI50 is on record?
**A.** 82.5 µM

**Q.** What about the TGI of the same compound?
**A.** > 100 µM

**Q.** With `C=C1C(=O)O[C@H]2[C@H]1CC/C(CNC(=O)c1cc3ccccc3[nH]1)=C\CC[C@@]1(C)O[C@@H]21` as the compound, how does the GI50 read?
**A.** 1.72 µM

**Q.** And the TGI?
**A.** 3.65 µM

**Q.** What does the source list for `Cc1cc2c(cc1C)[n+](=O)c(C(=O)c1ccccc1)c(C(F)F)n2[O-]`?
**A.** GI50: 9.3 µM; TGI: 25 µM

**Q.** Which results are given for `Cc1ccc(NC2=C3CCCCC3OC2=O)cc1` (configuration not stated)?
**A.** GI50: 34.9 µM; TGI: > 100 µM

**Q.** Which TGI does the source give for `COc1cc2c(cc1OC)C(Cl)C(c1ccc(F)cc1)=C2Cl` (configuration not stated) here?
**A.** 27.4 µM

**Q.** With `CN(C)c1ccc(/C=N/NC(=S)Nc2ccccc2)cc1` as the compound, how does the TGI read?
**A.** > 100 µM

**Q.** How did the GI50 turn out when `O=C1C(C(Nc2ccccc2)c2ccccc2)=C([O-])c2ccccc21.O=C1C(C(Nc2ccccc2)c2ccccc2)=C([O-])c2ccccc21.[Cu+2]` (configuration not stated) was run?
**A.** 7.54 µM

**Q.** And the TGI?
**A.** > 100 µM

**Q.** Which TGI does the source give for `CN(C)CC1CCC/C1=N/OC(=O)c1ccccc1` (configuration not stated) here?
**A.** > 100 µM

**Q.** For `COC1=CC(=O)C(C2(OC(C)C)OC(=O)C(Cl)=C2Cl)=CC1=O` (configuration not stated), which TGI is on record?
**A.** > 100 µM

**Q.** For `O=C(NC1C=CCC2C(=O)N(c3ccccc3)C(=O)C12)OCc1ccccc1` (configuration not stated), which TGI is on record?
**A.** > 100 µM

**Q.** What does the source list for `CCC(C)SC1SCC2C(=O)N(C)C3(CC3C)C(=O)OCC(NC(=O)c3nc4ccccc4cc3O)C(=O)NC(C)C(=O)N(C)C1C(=O)N(C)C1(CC1C)C(=O)OCC(NC(=O)c1nc3ccccc3cc1O)C(=O)NC(C)C(=O)N2C` (configuration not stated)?
**A.** GI50: 2.91e-05 µM; TGI: 0.000112 µM and < 0.0142 µM

**Q.** What does the source list for `Cc1[cH-]c(=O)n(-c2ccccc2)n1.[Au+].[Au].c1ccc([PH+](c2ccccc2)c2ccccc2)cc1.c1ccc([PH+](c2ccccc2)c2ccccc2)cc1`?
**A.** GI50: 16.8 µM; TGI: 36.2 µM

**Q.** How did the TGI turn out when `CC1(C)CC(c2c[nH]c3ccccc23)=CC2=Nc3ccccc3C21O` (configuration not stated) was run?
**A.** > 100 µM

**Q.** `CN1C(=O)C(=O)N2c3ccc(Cl)cc3C3(c4ccccc4)N=CC12O3` (configuration not stated) was tested. Which TGI did it give?
**A.** 17.6 µM

**Q.** `N#CCCC[Si]12OCCN(CCO1)CCO2` was tested. Which TGI did it give?
**A.** > 100 µM

**Q.** For `O=C(/C=C/c1c(O)ccc2ccccc12)c1ccc([N+](=O)[O-])cc1`, which TGI is on record?
**A.** 34.5 µM

**Q.** For `CN1CCN(c2ccc(Nc3ncc(Cl)c(NC[C@@H]4CCCO4)n3)cc2)CC1`, which GI50 is on record?
**A.** 2.52 µM

**Q.** What about the TGI of the same compound?
**A.** 13.6 µM

tested on: MCF7 breast; assay: growth of human tumour cells (NCI), 48 h

**Q.** Which results are given for `O=C1OCC2=C1C(c1cccc(Br)c1)c1cc3c(cc1N2CCO)OCCO3` (configuration not stated)?
**A.** GI50: 0.103 µM; TGI: > 50 µM

**Q.** Which results are given for `COc1ccc(Cn2c(Br)c3c(c2Br)-c2nc(N)sc2CC3)cc1`?
**A.** GI50: 3.58 µM; TGI: 17.6 µM

**Q.** For `Cc1nnc2ccnn2c1C`, which GI50 is on record?
**A.** > 100 µM

**Q.** What about the TGI of the same compound?
**A.** > 100 µM

**Q.** `Cn1cc(-c2cc3c(N4CCN(c5ncc([C@@](C)(N)c6ccc(F)cc6)cn5)CC4)ncnn3c2)cn1` was tested. Which GI50 did it give?
**A.** 2.56 µM

**Q.** What about the TGI of the same compound?
**A.** > 100 µM

**Q.** Which TGI does the source give for `C[C@@H]1CC[C@H]2C(C)(C)[C@H]3C[C@@]12CC[C@@]3(C)O` here?
**A.** > 100 µM

**Q.** Which TGI does the source give for `C=C(C)C(=O)O[C@@H]1C[C@@]2(C)O[C@@H]2C[C@H](O)/C(C)=C/[C@H]2OC(=O)C(=C)[C@@H]21` here?
**A.** > 100 µM

**Q.** What does the source list for `Cc1ccc(-c2nc(N3CCNCC3)c3oc(-c4ccc(C)cc4)nc3n2)cc1`?
**A.** GI50: 1.66 µM; TGI: 3.53 µM

**Q.** With `Cc1cc2c(cc1C)[n+](=O)c(C(=O)c1ccccc1)c(C(F)F)n2[O-]` as the compound, how does the GI50 read?
**A.** 12.1 µM

**Q.** And the TGI?
**A.** 41.1 µM

**Q.** `Cc1ccc(NC2=C3CCCCC3OC2=O)cc1` (configuration not stated) was tested. Which GI50 did it give?
**A.** 20.5 µM

**Q.** And the TGI?
**A.** > 100 µM
